Test results from patent US9750742B2, “Small molecular inhibitors of RAD51 recombinase and methods thereof” (Drexel University, priority 2011, dated 2017).
“Also recorded” adds a separate entry of the source.

Columns and labels:
RecA = biological target: T1, RecA (Escherichia coli, UniProt P0A7G6); assay: biochemical; parameters: species or system E. coli
T1 construct: purchased USB Inc. (Cleveland, Ohio)
Description: (Mazin et al., 2000, EMBO J. 19:1148-56). When indicated, chemical compounds in specified concentrations were added and incubation was continued for 30 min at 37° C. D-loop formation was initiated by addition of supercoiled pUC19 dsDNA (50 μM, nt) and carried out for 3 min at 37° C. The DNA products were deproteinized and analyzed as described above for the Rad51-promoted reaction.
IC50 values were calculated using GraphPad Prism V5.0 software and the sigmoidal dose-response function. The data were obtained from three independent repeats of experiments.

RAD54 = biological target: T2, RAD54 (Homo sapiens, UniProt Q92698); assay: DNA branch migration assay for RAD54; type: biochemical; conditions: 0 to 200 μM
T2 construct: made in house
T2 sequence (Q92698 1-747): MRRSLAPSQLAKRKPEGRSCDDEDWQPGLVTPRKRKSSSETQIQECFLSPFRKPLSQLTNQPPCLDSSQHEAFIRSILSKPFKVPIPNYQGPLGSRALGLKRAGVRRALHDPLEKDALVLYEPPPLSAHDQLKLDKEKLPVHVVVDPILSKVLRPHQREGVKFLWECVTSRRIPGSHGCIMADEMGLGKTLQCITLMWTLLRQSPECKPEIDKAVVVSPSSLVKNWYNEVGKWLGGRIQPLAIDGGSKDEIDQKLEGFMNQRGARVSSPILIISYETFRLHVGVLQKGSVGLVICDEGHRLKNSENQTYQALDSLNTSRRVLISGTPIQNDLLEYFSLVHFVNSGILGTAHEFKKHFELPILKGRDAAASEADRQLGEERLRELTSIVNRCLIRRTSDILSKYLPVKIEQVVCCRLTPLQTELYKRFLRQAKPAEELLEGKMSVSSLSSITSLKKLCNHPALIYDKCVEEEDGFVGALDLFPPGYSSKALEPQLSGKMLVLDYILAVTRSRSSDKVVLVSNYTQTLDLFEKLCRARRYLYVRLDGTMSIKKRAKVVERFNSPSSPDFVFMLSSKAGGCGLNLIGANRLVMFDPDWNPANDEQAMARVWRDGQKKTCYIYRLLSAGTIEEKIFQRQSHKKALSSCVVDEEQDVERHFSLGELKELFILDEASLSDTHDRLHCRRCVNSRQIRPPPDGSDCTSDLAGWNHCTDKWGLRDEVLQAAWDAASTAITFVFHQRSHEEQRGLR
Description: The partial Holliday junction (PX-junction), in which one of the four DNA arms is single-stranded (FIG. 6A), was used as a substrate for the 4-stranded branch migration promoted by RAD54 (Mazina et al., 2007, J. Biol. Chem. 282:21068-80). […] To produce PX-junctions, tailed DNA (Oligo 170, SEQ ID NO:9; Oligo 171, SEQ ID NO:10) (1.45 μM, molecules) was annealed with ^32P-labeled fork DNA (Oligo 71, SEQ ID NO:7; Oligo 169, SEQ ID NO:8) (1.33 μM, molecules) in branch migration buffer containing 25 mM Tris acetate, pH 7.5, 3 mM magnesium acetate, 2 mM ATP, 1 mM dithiothreitol, 100 μg ml^−1 bovine serum albumin, 10 U ml^−1 creatine phosphokinase, 15 mM creatine phosphate for 10 min at 37° C. and then for 10 min at 30° C. Then, branch migration was initiated immediately by addition of the RAD54 (100 nM) to PX-junctions (33 nM, molecules) in branch migration buffer and was carried out at 30° C. […] The DNA products were deproteinized by treatment with stop buffer (1.4% (w/v) SDS, 960 μg ml^−1 proteinase K, 7.5% (w/v) glycerol, 0.015% (w/v) bromphenol blue) for 5 min at 22° C. and analyzed by electrophoresis in 8% (w/v) polyacrylamide gels (29:1) in 1×TBE buffer (89 mM Tris borate, pH 8.3, and 1 mM EDTA) at 22° C. The gels were dried on DE81 chromatography paper (Whatman, Kent, UK) and quantified using a Storm 840 PhosphorImager (Molecular Dynamics, Piscataway, N.J.).

[1] = system: DR-GFP reporter system in 293 human embryonic kidney (HEK) cells; assay: DR-GFP assay for homologous recombination in human cells; type: cell-based; conditions: B02 20 μM; non-treatment cells 3.28%
Description: 293 HEK cells expressing DR-GFP were grown until the log phase. […] Then a 200 μl mixture containing 2 μg of pCBASce supercoiled plasmid DNA encoding I-SceI rare-cutting restriction endonuclease (Richardson et al., 1998, Genes Dev. 12:3831-42) and 6 μl of GenDrill™ transfection reagent (BamaGen BioScience LLC) in Opti-MEM® I Reduced-Serum (Invitrogen) was added to each well. After 2 days incubation, cells were trypsinized and diluted to density of 200 cells/μl in PBS (10 mM Na2HPO4, 1.76 mM KH2PO4, 137 mM NaCl and 2.7 mM KCl, pH 7.4) for Fluorescence Activated Cell Sorting (FACS) analysis on a Guava EasyCyte Plus System (Millipore, Billerica, Mass.).

MEF cells = assay: Clonogenic survival assay, MEF; type: cell-based, mouse
Description: Briefly, MEF cells were trypsinized and the appropriate number of cells was replated on 10 cm tissue culture dishes. […] Cells were fixed and stained using staining solution (0.05% crystal violet, 50% methanol in PBS); colonies were counted using an AlphaImager 3400 (Alpha Innotech Inc.). The percent of survival was determined as described (Hall & Giccia, 2005, “Radiobiology for the Radiologist”, 6th Ed., Philadelphia, Pa.: Lippincott Williams & Wilkins, pp. 30-45). The percent of survival obtained from untreated cells was normalized to 100% survival.

T1 sequence (P0A7G6 whole entry): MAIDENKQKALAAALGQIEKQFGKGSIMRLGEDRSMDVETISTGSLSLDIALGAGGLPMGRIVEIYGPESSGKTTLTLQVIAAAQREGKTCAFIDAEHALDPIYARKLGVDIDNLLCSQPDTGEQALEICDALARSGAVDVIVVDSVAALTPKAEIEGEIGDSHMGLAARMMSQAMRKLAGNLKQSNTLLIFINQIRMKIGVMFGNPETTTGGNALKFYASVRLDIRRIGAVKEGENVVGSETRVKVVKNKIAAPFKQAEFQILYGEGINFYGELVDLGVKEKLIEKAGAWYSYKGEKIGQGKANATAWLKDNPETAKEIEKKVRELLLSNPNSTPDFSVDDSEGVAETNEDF

Structure (SMILES): O=c1c2ccccc2nc(/C=C/c2cccnc2)n1Cc1ccccc1 [Compound B02, (E)-3-benzyl-2-(2-(pyridin-3-yl)vinyl)quinazolin-4(3H)-one]
- IC50 (RecA; IC50 (RecA), RecA 1 μM, ssDNA 3 μM, dsDNA 50 μM): > 250 µM
- IC50 (RecA; IC50 for RecA (D-loop), RecA 0.3 μM, ssDNA 0.9 μM, dsDNA 15 μM, B02 incubated with protein before ssDNA): > 100 µM
- inhibition of RecA DNA strand exchange, in words (RecA; up to 250 μM): no significant inhibition
- inhibition of RAD54 branch migration, in words (RAD54): not to significantly inhibit
- yield of GFP positive cells (I-SceI-induced) [1]: 0.40%
- sensitivity to cisDDP (cisplatin) and MMC (MEF cells; B02 5 μM): more sensitive
- sensitivity to MMS (MEF cells; B02 5 μM co-treatment with MMS): enhancement of sensitivity
- sensitivity to MMS (MEF cells; B02 5 μM plus AZD2281 1 μM versus AZD2281 only): more sensitive
- increase in sensitivity to MMC (MEF cells; B02 5 μM, MMC 1 μM): fivefold
- increase in sensitivity to cisplatin (MEF cells; B02 5 μM, cisplatin 32 μM): approximately 17 fold
- cellular viability, B02 alone (MEF cells; up to 5 μM, wild type MEF): No decrease of cellular viability; also recorded: did not have a substantial effect
